According to the kinase profiling compilation of Christmann-Franck et al. (2016):

Legend:
Test in all cases: radiometric filter-binding kinase assay, Kinase HotSpot
Conditions in all cases: compound 0.5 µM; ATP 10 µM
[1] = molecular target: CDK7 CCNH MNAT1 (human) (UniProt P50613+P51948+P51946)
[2] = molecular target: DYRK2 (human) (UniProt Q92630)
[3] = molecular target: SIK2 (human) (UniProt Q9H0K1)
[4] = molecular target: DDR2 (human) (UniProt Q16832)
[5] = molecular target: DYRK4 (human) (UniProt Q9NR20)
[6] = molecular target: RIPK2 (human) (UniProt O43353)
[7] = molecular target: TYK2 JH1 catalytic (human) (UniProt P29597)
[8] = molecular target: CSNK2A1 (human) (UniProt P68400)
Sequence of CSNK2A1 (human) (P68400 whole entry, looked up): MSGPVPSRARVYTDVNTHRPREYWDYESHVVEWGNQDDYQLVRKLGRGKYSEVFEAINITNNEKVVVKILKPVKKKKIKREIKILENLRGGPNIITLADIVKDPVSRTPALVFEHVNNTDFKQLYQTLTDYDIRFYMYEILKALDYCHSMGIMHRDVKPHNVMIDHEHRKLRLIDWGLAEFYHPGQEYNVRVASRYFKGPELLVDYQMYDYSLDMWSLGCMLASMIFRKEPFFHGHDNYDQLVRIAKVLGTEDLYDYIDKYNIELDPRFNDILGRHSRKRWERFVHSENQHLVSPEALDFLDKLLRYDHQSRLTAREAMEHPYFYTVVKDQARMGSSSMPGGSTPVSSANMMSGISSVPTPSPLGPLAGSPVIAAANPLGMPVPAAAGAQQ

[9] = molecular target: CSNK1G2 (human) (UniProt P78368)
[10] = molecular target: ROCK2 (human) (UniProt O75116)
[11] = molecular target: JAK3 JH1 JH2 (human) (UniProt P52333)
[12] = molecular target: GRK5 (human) (UniProt P34947)
[13] = molecular target: PIM3 (human) (UniProt Q86V86)
[14] = molecular target: INSR (human) (UniProt P06213)
[15] = molecular target: STK16 (human) (UniProt O75716)
[16] = molecular target: MAP4K2 (human) (UniProt Q12851)
[17] = molecular target: MST4 (human) (UniProt Q9P289)
Sequence of MST4 (human) (Q9P289 whole entry, looked up): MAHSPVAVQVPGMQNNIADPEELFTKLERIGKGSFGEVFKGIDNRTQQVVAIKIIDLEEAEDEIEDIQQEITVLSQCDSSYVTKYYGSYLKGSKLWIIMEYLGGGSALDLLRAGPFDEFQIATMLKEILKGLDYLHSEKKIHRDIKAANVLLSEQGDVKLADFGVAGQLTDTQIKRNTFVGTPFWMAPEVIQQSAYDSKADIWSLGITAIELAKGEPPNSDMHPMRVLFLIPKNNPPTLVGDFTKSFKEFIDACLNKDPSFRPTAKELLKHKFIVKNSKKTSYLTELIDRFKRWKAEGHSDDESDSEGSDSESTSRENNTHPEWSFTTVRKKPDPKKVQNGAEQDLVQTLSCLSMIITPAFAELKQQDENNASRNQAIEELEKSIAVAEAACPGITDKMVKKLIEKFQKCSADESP

[18] = molecular target: LRRK2 (human) (UniProt Q5S007)
[19] = molecular target: FER (human) (UniProt P16591)
[20] = molecular target: BLK (human) (UniProt P51451)
Sequence of BLK (human) (P51451 whole entry, looked up): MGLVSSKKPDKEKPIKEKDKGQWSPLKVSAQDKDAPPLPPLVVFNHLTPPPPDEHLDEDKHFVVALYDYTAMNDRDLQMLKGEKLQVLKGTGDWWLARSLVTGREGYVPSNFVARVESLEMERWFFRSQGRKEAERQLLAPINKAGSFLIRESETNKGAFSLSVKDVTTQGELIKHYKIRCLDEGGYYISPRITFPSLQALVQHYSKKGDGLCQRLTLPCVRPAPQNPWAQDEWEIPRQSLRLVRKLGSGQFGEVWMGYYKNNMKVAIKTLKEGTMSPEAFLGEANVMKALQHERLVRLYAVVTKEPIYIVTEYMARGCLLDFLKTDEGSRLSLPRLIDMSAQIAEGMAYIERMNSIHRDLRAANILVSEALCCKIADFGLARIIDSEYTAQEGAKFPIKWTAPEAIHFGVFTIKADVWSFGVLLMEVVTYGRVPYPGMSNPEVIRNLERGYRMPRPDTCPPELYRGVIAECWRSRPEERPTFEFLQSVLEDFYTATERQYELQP

[21] = molecular target: AXL (human) (UniProt P30530)
[22] = molecular target: PLK3 (human) (UniProt Q9H4B4)
[23] = molecular target: MAP3K8 (human) (UniProt P41279)
[24] = molecular target: ULK2 (human) (UniProt Q8IYT8)
[25] = molecular target: SRPK3 (human) (UniProt Q9UPE1)
[26] = molecular target: CSNK1G3 (human) (UniProt Q9Y6M4)
Sequence of CSNK1G3 (human) (Q9Y6M4 whole entry, looked up): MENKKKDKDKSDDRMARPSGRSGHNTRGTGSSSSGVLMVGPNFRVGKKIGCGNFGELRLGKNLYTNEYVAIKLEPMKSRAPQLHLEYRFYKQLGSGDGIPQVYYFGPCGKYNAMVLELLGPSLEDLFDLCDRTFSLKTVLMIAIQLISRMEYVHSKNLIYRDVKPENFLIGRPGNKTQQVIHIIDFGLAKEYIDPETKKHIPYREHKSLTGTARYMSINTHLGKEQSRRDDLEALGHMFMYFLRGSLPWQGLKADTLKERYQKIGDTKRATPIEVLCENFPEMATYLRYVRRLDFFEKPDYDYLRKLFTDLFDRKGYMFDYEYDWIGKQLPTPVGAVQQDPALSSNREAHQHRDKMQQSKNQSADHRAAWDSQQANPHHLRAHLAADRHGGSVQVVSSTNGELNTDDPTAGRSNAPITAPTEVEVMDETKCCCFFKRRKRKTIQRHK

[27] = molecular target: LIMK1 (human) (UniProt P53667)
[28] = molecular target: SGK2 (human) (UniProt Q9HBY8)
[29] = molecular target: GRK4 (human) (UniProt P32298)
[30] = molecular target: TEK (human) (UniProt Q02763)
[31] = molecular target: FGR (human) (UniProt P09769)
Sequence of FGR (human) (P09769 whole entry, looked up): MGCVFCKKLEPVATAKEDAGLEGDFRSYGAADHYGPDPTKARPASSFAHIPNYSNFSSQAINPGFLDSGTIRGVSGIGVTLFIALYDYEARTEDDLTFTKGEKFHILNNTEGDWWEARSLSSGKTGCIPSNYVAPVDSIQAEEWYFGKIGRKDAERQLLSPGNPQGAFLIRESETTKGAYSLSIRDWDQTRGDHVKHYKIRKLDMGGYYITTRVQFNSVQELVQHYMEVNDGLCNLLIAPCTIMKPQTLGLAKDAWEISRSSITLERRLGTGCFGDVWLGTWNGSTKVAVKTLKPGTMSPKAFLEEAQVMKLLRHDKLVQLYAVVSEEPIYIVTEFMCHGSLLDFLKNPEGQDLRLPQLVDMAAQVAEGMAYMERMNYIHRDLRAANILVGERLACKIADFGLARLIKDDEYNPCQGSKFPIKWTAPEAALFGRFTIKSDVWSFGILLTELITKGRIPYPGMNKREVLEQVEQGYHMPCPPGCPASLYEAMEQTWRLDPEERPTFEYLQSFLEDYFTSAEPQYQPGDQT

[32] = molecular target: CDK2 CCNE1 (human) (UniProt P24941+P24864)
[33] = molecular target: MAP3K3 (human) (UniProt Q99759)
Sequence of MAP3K3 (human) (Q99759 whole entry, looked up): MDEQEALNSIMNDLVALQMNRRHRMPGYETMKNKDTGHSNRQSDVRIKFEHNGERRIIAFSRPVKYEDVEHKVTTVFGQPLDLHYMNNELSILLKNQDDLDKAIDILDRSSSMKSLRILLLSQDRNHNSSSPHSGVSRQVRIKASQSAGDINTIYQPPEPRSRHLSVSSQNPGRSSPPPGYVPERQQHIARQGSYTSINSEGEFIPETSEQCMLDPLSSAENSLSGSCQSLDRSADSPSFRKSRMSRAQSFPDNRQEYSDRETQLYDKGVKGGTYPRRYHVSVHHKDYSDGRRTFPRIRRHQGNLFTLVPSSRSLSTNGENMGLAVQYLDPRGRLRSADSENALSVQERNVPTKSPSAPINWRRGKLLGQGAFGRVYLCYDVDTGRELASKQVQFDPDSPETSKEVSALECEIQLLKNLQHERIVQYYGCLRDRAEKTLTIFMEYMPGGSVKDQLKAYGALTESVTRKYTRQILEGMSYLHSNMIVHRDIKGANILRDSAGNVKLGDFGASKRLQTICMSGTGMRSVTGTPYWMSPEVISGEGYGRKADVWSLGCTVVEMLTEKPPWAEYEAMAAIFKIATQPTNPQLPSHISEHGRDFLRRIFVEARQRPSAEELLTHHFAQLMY

[34] = molecular target: MAPK8 (human) (UniProt P45983)
[35] = molecular target: NEK6 (human) (UniProt Q9HC98)
Sequence of NEK6 (human) (Q9HC98 whole entry, looked up): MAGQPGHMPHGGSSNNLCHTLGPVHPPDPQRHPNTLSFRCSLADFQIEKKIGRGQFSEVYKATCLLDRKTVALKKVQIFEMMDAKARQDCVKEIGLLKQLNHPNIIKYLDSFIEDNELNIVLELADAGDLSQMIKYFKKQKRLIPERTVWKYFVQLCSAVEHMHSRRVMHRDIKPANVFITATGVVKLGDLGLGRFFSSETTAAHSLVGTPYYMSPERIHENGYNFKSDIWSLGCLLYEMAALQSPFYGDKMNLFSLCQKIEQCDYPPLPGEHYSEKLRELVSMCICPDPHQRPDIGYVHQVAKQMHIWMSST

[36] = molecular target: BRSK2 (human) (UniProt Q8IWQ3)
[37] = molecular target: PRKD1 (human) (UniProt Q15139)
[38] = molecular target: NEK4 (human) (UniProt P51957)
[39] = molecular target: CDK1 CCNA2 (human) (UniProt P06493+P20248)
[40] = molecular target: HIPK4 (human) (UniProt Q8NE63)
[41] = molecular target: RPS6KA2 KD1 KD2 (human) (UniProt Q15349)
Sequence of RPS6KA2 KD1 KD2 (human) (Q15349 whole entry, looked up): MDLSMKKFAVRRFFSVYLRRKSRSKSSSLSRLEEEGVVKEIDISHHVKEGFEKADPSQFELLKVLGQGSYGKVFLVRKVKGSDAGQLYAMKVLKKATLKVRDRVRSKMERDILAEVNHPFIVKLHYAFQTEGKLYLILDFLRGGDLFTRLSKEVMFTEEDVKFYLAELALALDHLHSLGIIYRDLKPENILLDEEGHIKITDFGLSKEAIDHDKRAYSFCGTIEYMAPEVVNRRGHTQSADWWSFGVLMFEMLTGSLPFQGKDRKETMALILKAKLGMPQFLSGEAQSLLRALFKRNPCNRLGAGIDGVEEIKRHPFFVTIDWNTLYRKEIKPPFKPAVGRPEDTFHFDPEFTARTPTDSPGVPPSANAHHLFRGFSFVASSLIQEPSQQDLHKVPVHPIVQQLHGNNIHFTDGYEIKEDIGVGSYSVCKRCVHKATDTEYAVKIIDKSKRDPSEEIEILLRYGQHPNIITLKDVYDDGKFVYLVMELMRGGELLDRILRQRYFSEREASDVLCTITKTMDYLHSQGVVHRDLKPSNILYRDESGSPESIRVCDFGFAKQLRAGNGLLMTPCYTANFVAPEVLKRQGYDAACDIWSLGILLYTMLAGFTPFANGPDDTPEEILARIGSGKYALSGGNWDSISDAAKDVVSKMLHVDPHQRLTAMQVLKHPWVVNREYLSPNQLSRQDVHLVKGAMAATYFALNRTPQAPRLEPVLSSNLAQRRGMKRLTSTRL

[42] = molecular target: AURKB (human) (UniProt Q96GD4)

Sequence of CDK7 CCNH MNAT1 (human) (P50613 whole entry, looked up): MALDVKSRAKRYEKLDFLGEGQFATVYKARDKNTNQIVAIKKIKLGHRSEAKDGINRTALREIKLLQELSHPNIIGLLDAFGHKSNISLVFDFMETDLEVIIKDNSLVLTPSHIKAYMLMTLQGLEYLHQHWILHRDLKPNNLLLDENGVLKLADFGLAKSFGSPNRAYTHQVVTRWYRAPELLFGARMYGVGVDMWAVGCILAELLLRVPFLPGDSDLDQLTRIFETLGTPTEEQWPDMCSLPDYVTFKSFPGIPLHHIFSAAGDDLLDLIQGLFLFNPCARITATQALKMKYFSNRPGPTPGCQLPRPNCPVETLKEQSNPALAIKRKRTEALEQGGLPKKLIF
Sequence of CDK7 CCNH MNAT1 (human) (P51946 whole entry, looked up): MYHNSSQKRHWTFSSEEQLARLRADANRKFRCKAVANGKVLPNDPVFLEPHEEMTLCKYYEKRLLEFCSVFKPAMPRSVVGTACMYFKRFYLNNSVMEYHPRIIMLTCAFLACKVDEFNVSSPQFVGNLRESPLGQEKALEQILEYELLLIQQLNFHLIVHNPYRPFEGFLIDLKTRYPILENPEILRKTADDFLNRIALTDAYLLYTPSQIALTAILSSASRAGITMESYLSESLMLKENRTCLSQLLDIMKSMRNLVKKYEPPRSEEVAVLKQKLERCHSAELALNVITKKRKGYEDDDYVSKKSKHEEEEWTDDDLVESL
Sequence of CDK7 CCNH MNAT1 (human) (P51948 whole entry, looked up): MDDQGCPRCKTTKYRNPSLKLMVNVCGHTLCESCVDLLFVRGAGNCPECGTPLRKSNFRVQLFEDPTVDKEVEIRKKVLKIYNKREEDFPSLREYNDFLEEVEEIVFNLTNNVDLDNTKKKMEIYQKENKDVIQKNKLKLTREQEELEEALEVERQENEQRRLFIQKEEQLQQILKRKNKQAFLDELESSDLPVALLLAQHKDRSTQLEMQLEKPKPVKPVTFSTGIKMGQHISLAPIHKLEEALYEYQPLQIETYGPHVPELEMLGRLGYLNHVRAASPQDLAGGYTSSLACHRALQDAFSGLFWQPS

In the case of `Clc1ccc(Nc2nnc(Cc3ccncc3)c3ccccc23)cc1`, the residual activity [1] is reported as 107%, the residual activity [2] is reported as 103% and the residual activity [3] is reported as 97.9%. It also gave a residual activity [4] of 97.1%, a residual activity [5] of 97.5% and a residual activity [6] of 111%. The residual activity [7] was 89.4%, the residual activity [8] was 114% and the residual activity [9] was 98.2%. For the same molecule, the residual activity [10] was 95.4%, the residual activity [11] was 92.1% and the residual activity [12] was 110%. The residual activity [13] was 98.9%, the residual activity [14] was 99.9% and the residual activity [15] was 93.5%. For the same molecule, the residual activity [16] was 107%, the residual activity [17] was 118% and the residual activity [18] was 74.8%. The residual activity [19] was 91.4%, the residual activity [20] was 105% and the residual activity [21] was 98.3%. For the same molecule, the residual activity [22] was 100%, the residual activity [23] was 98.2% and the residual activity [24] was 99.9%. For the same molecule, the residual activity [25] was 104%, the residual activity [26] was 100% and the residual activity [27] was 98.9%. The residual activity [28] was 104%, the residual activity [29] was 91.3% and the residual activity [30] was 97.5%. For the same molecule, the residual activity [31] was 96.8%, the residual activity [32] was 94.5% and the residual activity [33] was 118%. The residual activity [34] was 98.2%, the residual activity [35] was 93.3% and the residual activity [36] was 97.1%. For the same molecule, the residual activity [37] was 101%, the residual activity [38] was 97.7% and the residual activity [39] was 105%. It also gave a residual activity [40] of 95.9%, a residual activity [41] of 97.5% and a residual activity [42] of 90%.

`COc1ccc(-c2cnc3c(-c4ccsc4)cnn3c2)cc1` was tested, and the residual activity [1] was 100%, the residual activity [2] was 71.1% and the residual activity [3] was 79.4%. It also gave a residual activity [4] of 98.2%, a residual activity [5] of 129% and a residual activity [6] of 56.8%. For the same molecule, the residual activity [7] was 86.1%, the residual activity [8] was 101% and the residual activity [9] was 82.3%. For the same molecule, the residual activity [10] was 90.4%, the residual activity [11] was 98.5% and the residual activity [12] was 97.4%. For the same molecule, the residual activity [13] was 100%, the residual activity [14] was 92.5% and the residual activity [15] was 66.9%. The residual activity [16] was 74.8%, the residual activity [17] was 95.7% and the residual activity [18] was 68.1%. The residual activity [19] was 81.5%, the residual activity [20] was 83.5% and the residual activity [21] was 96.7%. The residual activity [22] was 98%, the residual activity [23] was 105% and the residual activity [24] was 103%. It also gave a residual activity [25] of 94.1%, a residual activity [26] of 102% and a residual activity [27] of 71.2%. For the same molecule, the residual activity [28] was 96.7%, the residual activity [29] was 97% and the residual activity [30] was 99.1%. It also gave a residual activity [31] of 72.3%, a residual activity [32] of 82.8% and a residual activity [33] of 99.4%. For the same molecule, the residual activity [34] was 100%, the residual activity [35] was 99.3% and the residual activity [36] was 94.1%. The residual activity [37] was 95.1%, the residual activity [38] was 80% and the residual activity [39] was 87.4%. It also gave a residual activity [40] of 108%, a residual activity [41] of 87.5% and a residual activity [42] of 50.8%.

In the case of `CSc1nc(-c2ccc(F)cc2)c(-c2ccnc(NC(C)c3ccccc3)c2)[nH]1` (stereo unspecified), the residual activity [1] is reported as 97.2%, the residual activity [2] is reported as 96.1% and the residual activity [3] is reported as 97.2%. The residual activity [4] was 89.8%, the residual activity [5] was 91.4% and the residual activity [6] was 85.1%. It also gave a residual activity [7] of 96.5%, a residual activity [8] of 100% and a residual activity [9] of 75.6%. For the same molecule, the residual activity [10] was 95.3%, the residual activity [11] was 98.5% and the residual activity [12] was 103%. It also gave a residual activity [13] of 95.5%, a residual activity [14] of 100% and a residual activity [15] of 95.1%. The residual activity [16] was 82.5%, the residual activity [17] was 101% and the residual activity [18] was 100%. The residual activity [19] was 97.2%, the residual activity [20] was 110% and the residual activity [21] was 109%. For the same molecule, the residual activity [22] was 99.7%, the residual activity [23] was 88.6% and the residual activity [24] was 94.1%. For the same molecule, the residual activity [25] was 92.8%, the residual activity [26] was 58.4% and the residual activity [27] was 103%. The residual activity [28] was 96.1%, the residual activity [29] was 90.6% and the residual activity [30] was 90.5%. It also gave a residual activity [31] of 88.1%, a residual activity [32] of 88% and a residual activity [33] of 80%. The residual activity [34] was 86.3%, the residual activity [35] was 106% and the residual activity [36] was 94.8%. It also gave a residual activity [37] of 90.1%, a residual activity [38] of 102% and a residual activity [39] of 78%. The residual activity [40] was 95.2%, the residual activity [41] was 94.3% and the residual activity [42] was 98.4%.
